Like-named read-outs stand apart in the source and are kept apart here.
Key:
[1] = Experimental distribution coefficient (eLogD); type: physicochemical; conditions: pH 7.4
Protocol: To determine the lipophilicity of the compounds, a methodology based on the retention time of molecules in reverse stationary phase (Ascentis RP-Amide HPLC column) was used. The chromatogram was obtained using LC-MS/MS. Test compounds were prepared at 1.0 μg/mL by adding the stock solution at (1:1) mobile phases A:B + internal standard at 200nM (A: 5% methanol in 10mM ammonium acetate pH 7.4, B: 100% methanol), DMSO concentration must be lower than 2%. […] The retention time (in minutes) of each of the eight standards was plotted against their LogD values. The resulting equation for the calibration curve (y = mx + b) was used to calculate the LogD values for the test compounds.

MRC-5 cytotoxicity = type: cell-based; conditions: human, MRC-5 cells; S1 Data
[2] = Parallel artificial membrane permeability assay (PAMPA); type: in vitro ADME; conditions: PAMPA, S1 Data; read-out: PAMPA Pe
Protocol: To determine the passive permeability of the compounds, a 96-well plate containing membranes pre-coated with lipids (Corning Gentest # 353015) was used. The solutions of the compounds were prepared by diluting the stock solutions (10mM) in phosphate buffered saline (PBS) pH 6.5 at a final concentration of 10μM. The solutions diluted in PBS pH 6.5 were then added to the donor portion of the plate (300 μl/well), while PBS pH 7.4 (200 μl/well) was added to the acceptor portion. The two portions of the plate were then coupled, and the system was incubated for 5 h at 37°C. At the end of the incubation, samples were collected from the donor and acceptor plates, and then added to plates containing quench solution (10% water and 90% methanol: acetonitrile (50:50) + 50 nM tolbutamide). The final concentrations of compounds in the donor, acceptor, and initial solution (T0) wells were analyzed using LC-MS/MS. The results were used to calculate an effective permeability (Pe) value. The PAMPA assay was performed in triplicate (n = 3).

[3] = tested on: PMM (Primary Mouse Macrophages); assay: Cytotoxicity on primary peritoneal mouse macrophages; type: cell-based; conditions: Mus musculus, Macrophage, read-out: PMM IC50
Protocol: (§1) Leishmania infantum MHOM/MA(BE)/67/ITMAP263 amastigotes were collected from the spleen of infected donor Golden hamsters. Primary peritoneal mouse macrophages (PMM) were used as host cells for in vitro assays. PMM were collected from Swiss mice after 2 days of peritoneal stimulation with a 2% suspension of potato starch and maintained in RPMI-1640 medium supplemented with 200 mM L-glutamine, antibiotics and 5% FCS at 37°C and 5% CO2. Promastigotes of L. infantum chagasi (luciferase) (MHOM/BR/2005/NLC) obtained as described in Reimão et al.,[27] were grown in M199 medium supplemented with 10% FCS, 0.25% hemin, 32 μg/ml hygromycin and 2% sterile human urine at 25°C and 5% CO2.
(§2) Stock solutions of the compounds at 20 mM were prepared in 100% DMSO. Next, the compounds were serially pre-diluted in DMSO followed by a further dilution in demineralized water to assure a final in-test DMSO concentration below 1%. The compounds were tested at 4-fold dilutions starting at 64 μM.

[4] = Mouse liver microsomal stability; type: in vitro ADME; conditions: for microsomal CLint at 0.5 μM: CD1, mouse, liver microsomes
Protocol: The metabolic stability of the compounds was evaluated in human (pool of 200 donors, XenoTech) and mouse liver microsomes (CD1 mouse, GIBCO). Test compounds were prepared at a concentration of 0.5 μM and incubated with 0.25 mg/mL liver microsomes at pH 7.4 and 37°C. The reaction was started by addition of NADPH at […]. Samples were taken at 0, 5, 10, 15, 20 and 30 minutes. The reaction was stopped by the addition of acetonitrile:methanol (1:1) containing an internal standard (tolbutamide at 50 nM). Compounds were quantified by liquid chromatography triple quadrupole mass spectrometry (LC-MS/MS). Peak area ratios (analyte/internal standard) were converted to % remaining using the area ratio at time 0 as 100%. Half-life (t1/2 = ln(2)/k) in minutes and intrinsic clearance (Clint = k x 1000/(0.25)) in μL/min/mg were calculated using a non-linear regression from % remaining versus incubation time. From this plot, the slope (k) was determined. The analysis conditions were: analytical column (Gemini C18, […], Phenomenex), electrospray ionization source (ESI) in positive and negative mode, mobile phase A (water + 0.1% formic acid) and B (acetonitrile + 0.1% formic acid), flow rate of 0.7 mL/min.

[5] = tested on: Leishmania infantum MHOM/MA(BE)/67/ITMAP263 amastigotes; assay: L. infantum intracellular amastigote assay in PMM; type: cell-based; conditions: for SI: selectivity index (CC50 / IC50): CC50 / L. infantum IC50; for IC50: Leishmania infantum, read-out: L. infantum IC50
Protocol: as §1, §2
For the antileishmania in vitro assays, 3×10^4 PMM/well were seeded in 96-well plates. After 24h, 5×10^5 amastigotes/well were added and incubated for 2h at 37°C. Next, the compounds in 4-fold serial dilutions were added and the plates were further incubated for 5 days (37°C, 5% CO2). Parasite burdens were assessed using an inverted microscope after Giemsa staining. The results were expressed as percent reduction in parasite burdens compared to negative control wells (100% growth) and IC50 values were determined. Values represent the geometric mean of at least two independent experiments. Miltefosine was used as the positive control in all plates.

[6] = reverse stationary phase HPLC column (Ascentis RP-Amide), S1 Data
[7] = pH 7.4, S1 Data, read-out: MLM CLint
[8] = 120 h, intracellular amastigotes in PMM, 5 days
[9] = reverse-phase HPLC retention (Ascentis RP-Amide column), experimental
[10] = mouse liver microsome intrinsic clearance
[11] = pH 7.4, mouse liver microsome intrinsic clearance, read-out: MLM Clint

Row | SMILES | eLogD ([1]; experimental) | chromatographic logD [1, 6] | CC50 (MRC-5 cytotoxicity) [µM] | Papp at 5 h, 10 μM [2] [×10⁻⁶ cm/s] | IC50 [3] [µM] | microsomal CLint at 0.5 μM [4, 7] [µL/min/mg] | SI: selectivity index (CC50 / IC50) [5] | IC50 [5, 8] [µM] | IC50 ([5]; S1 Data) [µM] | chromatographic logD [1, 9] | MLM CLint ([4]; S1 Data) [µL/min/mg] | MLM CLint [4, 10] [µL/min/mg] | microsomal CLint at 0.5 μM [4, 11] [µL/min/mg] | L. infantum IC50 ([5]; intracellular amastigotes in PMM, 5 days)
1 | CCCn1c(NC(=O)Cc2ccc(F)cc2)nc2ccccc21 [Compound 2, CCCn1c(nc2c1cccc2)NC(Cc3ccc(cc3)F)=O] | 4.0 | 3.97 | > 64 | 6.63 | 32 | 2760 | 2 | 15 | 14.8 |  |  |  |  | 
2 | CCCn1c(NC(=O)Cc2ccc(F)cc2)nc2c(F)cccc21 [Compound 5, Fc1cccc2c1nc(NC(=O)Cc3ccc(F)cc3)n2CCC] |  | 3.57 | > 64 | 16.2 | > 64 |  | 1 |  | > 64 | 3.6 | 715 |  |  | 
3 | CCCn1c(NC(=O)Cc2ccc(F)cc2)nc2cc(F)c(F)cc21 [Compound 6, Fc1cc(n(CCC)c(NC(=O)Cc2ccc(F)cc2)n3)c3cc1F] |  | 4.04 | > 64 | 13.6 | > 64 |  | 29 | 2.2 | 2.19 |  |  | 399 |  | 
4 | CCCn1c(NC(=O)Cc2ccc(F)cc2)nc2ccc(C#N)cc21 [Compound 8, n1c(c2n(CCC)c1NC(=O)Cc3ccc(F)cc3)ccc(C#N)c2] | 3.6 | 3.6 | > 64 | 30.7 | 45.2 | 226 | 1 | 46 | 45.6 |  |  |  | 225 | 
5 | CCn1c(NC(=O)Cc2ccc(F)cc2)nc2ccc(F)cc21 [Compound 16, Fc1cc2c(nc(NC(=O)Cc3ccc(F)cc3)n2CC)cc1] |  | 3.59 | > 64 | 19.4 | > 64 | 538 |  | 4.4 | 4.35 |  |  |  |  | 
6 | O=C(Cc1ccc(Cl)cc1)Nc1nc2cc(F)ccc2[nH]1 [Compound 18, Fc1ccc([nH]c(NC(Cc2ccc(Cl)cc2)=O)n3)c3c1] |  | 4.26 | > 64 | 6.04 | > 64 | 366 |  |  | > 64 | 3.9 |  |  |  | poor activity
7 | CC(C)(C)n1c(NC(=O)Cc2ccc(F)cc2)nc2cc(F)ccc21 [Compound 19, Fc1cc(nc(NC(=O)Cc2ccc(F)cc2)n3C(C)(C)C)c3cc1] |  | 4.04 | > 64 | 6.35 | > 64 | 373 |  | 19 | 18.6 | 4 |  |  |  | 
8 | O=C(Cc1ccc(F)cc1)Nc1nc2ccc(F)cc2n1CC1CC1 [Compound 21, Fc1cc2c(nc(NC(=O)Cc3ccc(F)cc3)n2CC4CC4)cc1] |  | 4.12 | 17.4 | 19.4 | > 64 | 887 |  | 8.1 | 8.06 |  |  |  |  | 
9 | O=C(Cc1ccc(F)cc1)Nc1nc2cc(F)ccc2n1CCCN1CCOCC1 [Compound 27, Fc1cc(nc(NC(=O)Cc2ccc(F)cc2)n3CCCN4CCOCC4)c3cc1] |  | 3.42 | 60.9 | 4.74 | 45.2 | 335 |  | 24 | 23.5 |  |  |  |  | 
10 | O=C(Cc1ccc(F)cc1)Nc1nc2cc(F)ccc2n1C1CCOCC1 [Compound 28, Fc1cc(nc(NC(=O)Cc2ccc(F)cc2)n3C4CCOCC4)c3cc1] |  | 3.32 | > 64 | 19.6 | > 64 | 133 |  | 13 | 12.7 |  |  |  |  | 
11 | Cn1nccc1C(=O)Nc1nc2ccc(C#N)cc2n1C1CCOCC1 [Compound 32, O=C(c1ccnn1C)Nc2nc(ccc(C#N)c3)c3n2C4CCOCC4] |  | 2.32 | > 64 | 11 | > 64 | < 23 | 1 |  | > 64 | 2.3 |  |  | 23 | 
12 | Cn1ccc(C(=O)Nc2nc3ccc(C#N)cc3n2CC(F)(F)F)n1 [Compound 35, O=C(c1nn(C)cc1)Nc2nc(ccc(C#N)c3)c3n2CC(F)(F)F] | 4.2 | 4.15 | 58.2 | 13.9 | 32 |  | 1 | 26 | 25.7 |  | 73 |  |  | 
13 | CC(C)(C)Cn1c(NC(=O)c2ccn(CCO)n2)nc2ccc(C#N)cc21 [Compound 38, O=C(c1nn(CCO)cc1)Nc2nc(ccc(C#N)c3)c3n2CC(C)(C)C] |  | 4.03 | > 64 | 7.54 | > 64 | < 23 | 1 |  | > 64 | 4 |  |  |  | 
14 | CC(C)(C)Cn1c(NC(=O)c2ccccn2)nc2ccc(C#N)cc21 [Compound 40, CC(Cn1c(NC(=O)c2ccccn2)nc(c13)ccc(C#N)c3)(C)C] |  | 3.93 | 60.9 | 3.62 | 16 | 1030 | 1 | 15 | 14.9 | 4 |  |  |  | 
15 | CN1CCC(n2c(NC(=O)c3ccnn3C)nc3ccc(C#N)cc32)CC1 [Compound 51, O=C(c1ccnn1C)Nc2nc(ccc(C#N)c3)c3n2C4CCN(C)CC4] |  |  | > 64 | 2.91 | 50.8 |  | 3 | 20 | 20.2 |  | 72 |  |  | 
16 | Cn1nccc1C(=O)Nc1nc2cccnc2n1CC(F)(F)F [Compound 53, O=C(c1ccnn1C)Nc2nc(cccn3)c3n2CC(F)(F)F] |  |  | 6.83 | 24.3 | 32 | 118 | 4 | 8.2 | 8.18 |  |  | 119 |  | 

— article PMC7932521, “2-aminobenzimidazoles for leishmaniasis: From initial hit discovery to in vivo profiling” (PLoS Neglected Tropical Diseases, 2021)
